Measured values taken from US20140193454A1, “METHOD FROM PREPARING CERIPORIA LACERATA CULTURE EXTRACT AND PHARMACEUTICAL COMPOSITION FOR PREVENTION OR TREATMENT OF DIABETES AND DIABETIC COMPLICATIONS COMPRISING CERIPORIA LACERATA CULTURE EXTRACT AS ACTIVE INGREDIENT” (priority 2013, published 2014).

Legend:
Type in all cases: in vivo
[1] = test system: C57BL/Ksj (BL/Ls) homozygous diabetic (db/db) mice; test: Weekly tail vein blood glucose level after 12-hr fasting; conditions: after 3 weeks (diabetes control about 400 mg/dL)
From the text: (§1) In order to examine the blood glucose lowering effects of the Ceriporia lacerata culture and exopolysaccharide, C57BL/Ksj (BL/Ls) homozygous diabetic (db/db) mice (SPF) as a typical type 2 diabetes animal model were used in this experiment. db/db mice are animals in which diabetes is caused by a point mutation in the leptin receptor gene Lepr of chromosome 4. In the animals, as the leptin receptor decreases, the signaling ability decreases, and thus the blood glucose level increases. The animals are recognized as an insulin-independent diabetes model and suitable for the evaluation and comparison of experimental results on the basis of raw data. For these reason, these db/db mice were selected in this experiment. The db/db mice used in this study were 6-week-old male mice weighing about 30-40 g, and these mice were produced in Japan SLC Inc. and obtained from Central Laboratory Animal (Korea). The mice were acclimated for about 7 days, and the weight and blood glucose level thereof were measured. 30 healthy animals suitable for experimentation and having no abnormal general conditions were selected. […] During the rearing period of 6 week, a change in the weight was measured once weekly. In order to examine a change in the blood glucose level, the tail vein blood glucose level was measured using ACCU-CHEK Sensor (Germany) once weekly after 12-hr fasting. […]

[2] = test system: C57BL/Ksj (BL/Ls) homozygous diabetic (db/db) mice; test: Changes in food intake, water intake and weight of db/db mice over 6 weeks; conditions: 300 mg/kg, versus other groups
From the text: as §1

[3] = test system: C57BL/Ksj (BL/Ls) homozygous diabetic (db/db) mice; test: Organ weight of db/db mice after 6-week oral administration; conditions: 300 mg/kg orally every day, 6 weeks
Method: In the animals, as the leptin receptor decreases, the signaling ability decreases, and thus the blood glucose level increases. The animals are recognized as an insulin-independent diabetes model and suitable for the evaluation and comparison of experimental results on the basis of raw data. For these reason, these db/db mice were selected in this experiment. […] The mice were acclimated for about 7 days, and the weight and blood glucose level thereof were measured. 30 healthy animals suitable for experimentation and having no abnormal general conditions were selected. The experimental animals were divided according to a randomized block design into a negative control group, an exopolysaccharide low-dose group (150 mg/kg), an exopolysaccharide high-dose group (300 mg/kg) and a positive control group (metformin-300 mg/kg) such that the blood glucose level and weight are equal between the groups. These mice were reared for 6 weeks. In addition, normal and control groups, each consisting of 6 animals, were kept for 6 weeks under the same conditions. All test substances and positive control substances were orally administered at the same point of time every day, and the normal and negative control groups were orally administered with water (FIG. 11). During the rearing period of 6 week, a change in the weight was measured once weekly. In order to examine a change in the blood glucose level, the tail vein blood glucose level was measured using ACCU-CHEK Sensor (Germany) once weekly after 12-hr fasting. The experimental animals were fed with a commercially available animal solid feed (Samtaco Co. Ltd., Korea) and allowed access to water ad libitum. The animals were reared under the conditions of temperature of 23±3° C. and relative humidity of 50±10% with a 12-hr light/12-hr dark cycle (lighting: a.m. 8 to p.m. 8). For sacrifice of the experimental animals, all the animals were fasted for 12 hours and anesthetized with ether. Blood was taken from the saphenous vein and placed in a tube for serum separation. Then, the blood was centrifuged at 3,000 rpm for 20 minutes to obtain serum which was to be used as a sample for analysis of biochemical markers. Immediately after sacrifice, the liver, abdominal fat and the like were extracted from all the animals, weighed, fast-frozen at -80° C. and stored until use. Portions of the extracted liver and pancreas were fixed in 4% paraformaldehyde solution and subjected to histological analysis.

Question: Which results are given for CN(C)C(=N)N=C(N)N [MET, metformin]?
Answer: blood glucose level after 12-hr fasting [1]: no increase in the blood glucose level; feed intake [2]: significantly lower; water intake [2]: significantly lower; Abdominal fat (W/BW) [3]: 2.564 ± 0.33 W/BW; Kidney (W/BW) [3]: 0.39 ± 0.03 W/BW; Kidney fat (W/BW) [3]: 0.89 ± 0.13 W/BW; Liver (W/BW) [3]: 2.60 ± 0.19 W/BW; Spleen (W/BW) [3]: 0.03 ± 0.02 W/BW
